Assay results taken from ChEMBL document CHEMBL1201862, “PubChem BioAssay data set” (2004).
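Growth conditions: 96-well plates. Treatment: test compound, 48 hours, 5 concentrations. Analysis: linear interpolation between bracketing concentrations; unreached endpoints set to highest concentration. At the GI50, growth is halved.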 Calls of active or inactive are those of the source. No stated cut-off is given here; in the data, active = GI50 up to about 1.1 µM and inactive = higher.

Experiments:
Assay in all cases: NCI anticancer screen, dose series, 48 h
786-0 = system: 786-0
A549 = system: A549
ACHN = system: ACHN
BT-549 = system: BT-549
CAKI-1 = system: CAKI-1
CCRF-CEM = system: CCRF-CEM
COLO 205 = system: COLO 205
DU-145 = system: DU-145
EKVX = system: EKVX
HCC 2998 = system: HCC 2998
HCT-116 = system: HCT-116
HCT-15 = system: HCT-15
HL-60 = system: HL-60
HOP-62 = system: HOP-62
HOP-92 = system: HOP-92
HT-29 = system: HT-29
Hs-578T = system: Hs-578T
IGROV-1 = system: IGROV-1
K562 = system: K562
KM12 = system: KM12
LOX IMVI = system: LOX IMVI
M14 = system: M14
MCF7 = system: MCF7
MDA-MB-231 = system: MDA-MB-231
MDA-MB-435 = system: MDA-MB-435
MDA-N = system: MDA-N
MOLT-4 = system: MOLT-4
Malme-3M = system: Malme-3M
NCI-H226 = system: NCI-H226
NCI-H23 = system: NCI-H23
NCI-H460 = system: NCI-H460
NCI-H522 = system: NCI-H522
NCI/ADR-RES = system: NCI/ADR-RES
OVCAR-3 = system: OVCAR-3
OVCAR-4 = system: OVCAR-4
OVCAR-5 = system: OVCAR-5
OVCAR-8 = system: OVCAR-8
PC-3 = system: PC-3
RPMI-8226 = system: RPMI-8226
RXF 393 = system: RXF 393
SF-268 = system: SF-268
SF-295 = system: SF-295
SF-539 = system: SF-539
SK-MEL-2 = system: SK-MEL-2
SK-MEL-5 = system: SK-MEL-5
SK-OV-3 = system: SK-OV-3
SN12C = system: SN12C
SNB-19 = system: SNB-19
SR = system: SR
SW-620 = system: SW-620
T47D = system: T47D
TK-10 = system: TK-10
U-251 = system: U-251
UACC-257 = system: UACC-257
UACC-62 = system: UACC-62
UO-31 = system: UO-31
A498 = system: A498
SK-MEL-28 = system: SK-MEL-28
SNB-75 = system: SNB-75

Structure (SMILES): O=C1C(Cl)C(c2cccc(Br)c2)N1c1c(O)c(Cl)cc(Br)c1Cl (centres undefined)
- GI50 (786-0): 23.4 µM (inactive)
- GI50 (A549): 17.3 µM (inactive)
- GI50 (ACHN): 15.2 µM (inactive)
- GI50 (BT-549): 25.8 µM (inactive)
- GI50 (CAKI-1): 19.3 µM (inactive)
- GI50 (CCRF-CEM): 14.6 µM (inactive)
- GI50 (COLO 205): 8.63 µM (inactive)
- GI50 (DU-145): 14.9 µM (inactive)
- GI50 (EKVX): 17 µM (inactive)
- GI50 (HCC 2998): 11.1 µM (inactive)
- GI50 (HCT-116): 14.5 µM (inactive)
- GI50 (HCT-15): 2.32 µM
- GI50 (HL-60): 26.4 µM (inactive)
- GI50 (HOP-62): 13.8 µM (inactive)
- GI50 (HOP-92): 6.93 µM (inactive)
- GI50 (HT-29): 5.81 µM (inactive)
- GI50 (Hs-578T): 9.46 µM (inactive)
- GI50 (IGROV-1): 1.25 µM (inactive)
- GI50 (K562): 15.9 µM (inactive)
- GI50 (KM12): 16.7 µM (inactive)
- GI50 (LOX IMVI): 14.5 µM (inactive)
- GI50 (M14): 13.9 µM (inactive)
- GI50 (MCF7): 12.1 µM (inactive)
- GI50 (MDA-MB-231): 17 µM (inactive)
- GI50 (MDA-MB-435): 15 µM (inactive)
- GI50 (MDA-N): 18.5 µM (inactive)
- GI50 (MOLT-4): 13 µM (inactive)
- GI50 (Malme-3M): 19.1 µM (inactive)
- GI50 (NCI-H226): 18.2 µM (inactive)
- GI50 (NCI-H23): 16.6 µM (inactive)
- GI50 (NCI-H460): 14.1 µM (inactive)
- GI50 (NCI-H522): 14.1 µM (inactive)
- GI50 (NCI/ADR-RES): 23.8 µM (inactive)
- GI50 (OVCAR-3): 16.1 µM (inactive)
- GI50 (OVCAR-4): 12.3 µM (inactive)
- GI50 (OVCAR-5): 26.7 µM (inactive)
- GI50 (OVCAR-8): 30.3 µM (inactive)
- GI50 (PC-3): 18 µM (inactive)
- GI50 (RPMI-8226): 14.4 µM (inactive)
- GI50 (RXF 393): 10.9 µM (inactive)
- GI50 (SF-268): 14.8 µM (inactive)
- GI50 (SF-295): 17.4 µM (inactive)
- GI50 (SF-539): 15.6 µM (inactive)
- GI50 (SK-MEL-2): 7.08 µM (inactive)
- GI50 (SK-MEL-5): 14.2 µM (inactive)
- GI50 (SK-OV-3): 18.3 µM (inactive)
- GI50 (SN12C): 14.7 µM (inactive)
- GI50 (SNB-19): 1.38 µM (inactive)
- GI50 (SR): 20.4 µM (inactive)
- GI50 (SW-620): 19.3 µM (inactive)
- GI50 (T47D): 15.2 µM (inactive)
- GI50 (TK-10): 19 µM (inactive)
- GI50 (U-251): 12.7 µM (inactive)
- GI50 (UACC-257): 10.8 µM (inactive)
- GI50 (UACC-62): 14.5 µM (inactive)
- GI50 (UO-31): 16.8 µM (inactive)

Structure (SMILES): CCCCCCCCCCCCCCCC(=O)OC1C(O)C(O)C(O)C(O)C12CO2 (centres undefined)
- GI50 (786-0): 18.6 µM (inactive)
- GI50 (A498): > 100 µM (inactive)
- GI50 (A549): > 100 µM (inactive)
- GI50 (ACHN): 24.4 µM (inactive)
- GI50 (BT-549): 24.2 µM (inactive)
- GI50 (CAKI-1): 13.6 µM (inactive)
- GI50 (CCRF-CEM): 7.94 µM (inactive)
- GI50 (COLO 205): 36.3 µM (inactive)
- GI50 (DU-145): 88.5 µM (inactive)
- GI50 (EKVX): 22.7 µM (inactive)
- GI50 (HCC 2998): 71.8 µM (inactive)
- GI50 (HCT-116): 24.3 µM (inactive)
- GI50 (HCT-15): 24.5 µM
- GI50 (HL-60): 15.2 µM (inactive)
- GI50 (HOP-62): > 100 µM (inactive)
- GI50 (HOP-92): 14.3 µM (inactive)
- GI50 (HT-29): 45.4 µM (inactive)
- GI50 (Hs-578T): 31.4 µM (inactive)
- GI50 (IGROV-1): 25.1 µM (inactive)
- GI50 (K562): 24.7 µM (inactive)
- GI50 (KM12): 36.2 µM (inactive)
- GI50 (LOX IMVI): 20.3 µM (inactive)
- GI50 (M14): > 100 µM (inactive)
- GI50 (MCF7): 16.2 µM (inactive)
- GI50 (MDA-MB-231): 34.4 µM (inactive)
- GI50 (MDA-MB-435): 48.5 µM (inactive)
- GI50 (MDA-N): > 100 µM (inactive)
- GI50 (MOLT-4): 12.2 µM (inactive)
- GI50 (Malme-3M): > 100 µM (inactive)
- GI50 (NCI-H226): 42.8 µM (inactive)
- GI50 (NCI-H23): 49.2 µM (inactive)
- GI50 (NCI-H460): > 100 µM (inactive)
- GI50 (NCI-H522): 33 µM (inactive)
- GI50 (NCI/ADR-RES): 46 µM (inactive)
- GI50 (OVCAR-3): 24.6 µM (inactive)
- GI50 (OVCAR-4): 55.1 µM (inactive)
- GI50 (OVCAR-5): 56 µM (inactive)
- GI50 (OVCAR-8): 22.8 µM (inactive)
- GI50 (PC-3): 20.9 µM (inactive)
- GI50 (RPMI-8226): 26.4 µM (inactive)
- GI50 (RXF 393): 69.2 µM (inactive)
- GI50 (SF-268): 34 µM (inactive)
- GI50 (SF-295): 70.1 µM (inactive)
- GI50 (SF-539): 25.8 µM (inactive)
- GI50 (SK-MEL-28): > 100 µM (inactive)
- GI50 (SK-MEL-2): 37.3 µM (inactive)
- GI50 (SK-MEL-5): > 100 µM (inactive)
- GI50 (SK-OV-3): 51.4 µM (inactive)
- GI50 (SN12C): 17.5 µM (inactive)
- GI50 (SNB-19): > 100 µM (inactive)
- GI50 (SNB-75): 20.7 µM (inactive)
- GI50 (SW-620): 14.7 µM (inactive)
- GI50 (T47D): > 100 µM (inactive)
- GI50 (TK-10): > 100 µM (inactive)
- GI50 (U-251): 17.5 µM (inactive)
- GI50 (UACC-257): > 100 µM (inactive)
- GI50 (UACC-62): 28.4 µM (inactive)
- GI50 (UO-31): 68.4 µM (inactive)
